Source: ChEMBL document CHEMBL5241073, “Pharmacological Targeting of Executioner Proteins: Controlling Life and Death” (J Med Chem, 2021)

Biological target: Apoptosis regulator BAX (Homo sapiens, UniProt Q07812)
Experiment: Inhibition of recombinant human BAX expressed in Escherichia coli BL21 (DE3) assessed as inhibition of liposome permeabilization and measured for 2 hrs by fluorescence analysis

Apoptosis regulator BAX, sequence (Q07812 whole entry): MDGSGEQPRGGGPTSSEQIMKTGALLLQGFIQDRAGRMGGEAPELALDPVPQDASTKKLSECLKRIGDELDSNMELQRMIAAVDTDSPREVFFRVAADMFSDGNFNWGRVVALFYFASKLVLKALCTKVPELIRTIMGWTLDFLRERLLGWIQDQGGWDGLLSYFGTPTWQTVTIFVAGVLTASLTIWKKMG

IC50 [µM] | SMILES
4 | COCCOCOc1ccc2c(c1)O[C@H](CN(Cc1ccc(Br)cc1)C(=O)[C@H](Cc1ccccc1)NC(=O)c1ccccc1)[C@H]2N
6 | COCCOCOc1ccc2c(c1)O[C@H](CN)[C@H]2N(Cc1ccc(Br)cc1)C(=O)[C@H](Cc1ccccc1)NC(=O)c1ccccc1
